Experimental data taken from patent US12285418B1, “2-(5-aminopyridin-2-yl)-N-benzylacetamides and use thereof in the treatment of acute myeloid leukemia” (University of Jeddah, priority 2024, dated 2025).
pIC50: −log10 of the molar value.

Columns and labels:
Assay type in all cases: cell-based
[1] = system: KG1a cells; experiment: Cell viability assay (CellTiter-Blue), KG1a; conditions: Homo sapiens, KG-1a, 48 h incubation, mean±SD, read-out: IC50 against KG1a cells
Description: (§1) Cell viability was determined using the CellTiter®-Blue Cell Viability Assay kit (Promega, Madison, WI, USA) as previously described (Alkhatabi et al., 2022). Approximately 10^4 cells were counted, plated in a 96-well plate in the presence of test compounds ranging from 0.01 to 40 μM in quadruplicate, and incubated for 48 h at 37° C. in a humidified incubator. After the incubation period was completed, 20 μL of CellTiter®-Blue Cell Viability Assay reagent was added to each well and incubated for an additional 2 h for fluorescence development. Florescence was measured at Ex/Em 540/590 on a SpectraMax® i3 Multi-Mode microplate reader (Molecular Devices, LLC, San Jose, CA, USA) and plotted against the drug concentration to determine the IC50 of the test compounds. The IC50 was obtained by a nonlinear regression model using GraphPad Prism 10.1.1 (GraphPad Software, Inc., USA).
(§2) The half-maximal inhibitory concentration (IC50) of each drug was calculated using the GraphPad Prism software version 10.1.1. Flow cytometric data were analyzed using Diva software provided with the BD FACSCanto II Clinical Flow Cytometry System (BD Biosciences, USA). Student's paired t-test and Two-way ANOVA were used to compare data points. Data are presented as mean+SD, and at least three independent experiments were performed. […]

[2] = system: MV4-11 cells; experiment: Cell viability assay (CellTiter-Blue), MV4-11; conditions: Homo sapiens, 48 h incubation, mean±SD, read-out: IC50 against MV4-11 cells
Description: as §1, §2

[3] = system: K562 cells; experiment: Cell viability assay (CellTiter-Blue), K562; conditions: Homo sapiens, 48 h incubation, mean±SD, read-out: IC50 against K562 cells
Description: as §1, §2

[4] = system: HL60 cells; experiment: Cell viability assay (CellTiter-Blue), HL60; conditions: Homo sapiens, HL-60, 48 h incubation, mean±SD, read-out: IC50 against HL60 cells
Description: as §1, §2

Measured: pIC50

O=C(Cc1ccc(/N=C2\OC(=O)c3ccccc32)cn1)NCc1ccccc1 [Compound II, (Z)-N-benzyl-2-(5-((3-oxoisobenzofuran-1 (3H)-ylidene)amino)pyridin-2-yl) acetamide]
< 5.00: all assays above

O=C(Cc1ccc(NC(=O)c2ccccc2O)cn1)NCc1ccccc1 [Compound III, N-(6-(2-(Benzylamino)-2-oxoethyl)pyridin-3-yl)-2-hydroxybenzamide]
< 5.00: all assays above
